Reference: PMC2628613 (Diabetes, 2009)

How the values were obtained:
[1] = tested on: PBMCs; format: cell-based, human
[2] = tested on: purified HLA-A2; design: species or system human; conditions: >50, 20–50, <20% binding at 10^−6 mol/l = high, intermediate, low binders

Row | Substance | Frequencies of recognition, Control subjects [1] | Frequencies of recognition, Patients [1] | Responses (stimulation score), Control subjects [1] | Responses (stimulation score), Patients [1] | Binding to HLA-A2 (in words) [2] | Frequencies of recognition, C [1] | Frequencies of recognition, D [1] | Frequencies of recognition, L [1] | Frequencies of recognition, R [1] | Recognized in % of patients [1] [%] | Recognized in % of recent-onset patients [1] | Responses (stimulation score), C [1] | Responses (stimulation score), L [1] | Responses (stimulation score), R [1] | Responses (stimulation score), D [1]
1 | ELRSRYWAI [NP 380–388, reference compound] | 2/7 | 7/13 | 5 (2–131) | 8 (0–119) |  |  |  |  |  |  |  |  |  |  | 
2 | AAVDLSHFL [Nef 83–91, reference compound] | 0/4 | 0/12 | 0 (0–5) | 3 (0–20) |  |  |  |  |  |  |  |  |  |  | 
3 | ALWGPDPAAA [15–24] | 0/6 | 8/17 | 0 (0–0) | 12.2 (0–52.8) | high binders | 0/4 | 0/2 | 1/4 | 7/13 | > 40 | > 50% | 0 (0–0) | 12.8 (2.4–32.2) | 8.7 (0–52.8) | 
4 | RLLPLLALL [6–14] | 0/6 | 5/18 | 4.7 (3.9–7.2) | 30.6 (7.8–144) | high binders | 0/4 | 0/2 | 1/4 | 4/14 |  |  | 4.7 (3.9–7.2) | 28.9 (21.1–51.1) | 30.6 (7.8–144) | 
5 | RLLPLLALLAL [6–16] | 0/12 | 9/20 | 0 (0–9.5) | 7.3 (0–111.7) | high binders | 0/8 | 0/4 | 2/4 | 7/16 | > 40 | at least 30% | 0 (0–9.5) | 12.2 (10–54.5) | 5 (0–111.7) | 0 (0–0)
6 | EWRFDSRLA [Nef 182–189, reference compound] | 0/3 | 0/8 | 0 (0–0) | 1 (0–35) |  |  |  |  |  |  |  |  |  |  | 
7 | Peptide 1–8: human preproinsulin leader sequence peptide, residues 1–8, MALWMRLL |  |  |  |  | no significant binding |  |  |  |  |  |  |  |  |  | 
